This is an account of results in patent publication US5888999A, “Method for treating anxiety with muscarinic cholinergic receptor agonists” (Eli Lilly and Company, priority 1997, dated 1999).

For one assay, the system named is M1-sites (muscarinic receptors).
Assay: not given
Conditions: cited from earlier work.
Turning to `CN1CCN(CC(=O)N2c3ccccc3C(=O)Nc3cccnc32)CC1` [pirenzepine], the “selectivity for M1-sites” value was “selective for M1 -sites”.

The subject of a further assay is dopamine receptors.
Assay: not given
Conditions: only at the 5-HT1A and dopamine receptors; cited from earlier work.
Turning to `O=C1CC2(CCCC2)CC(=O)N1CCCCN1CCN(c2ncccn2)CC1` [Buspirone], the “interaction at dopamine receptors” value is “reasonable potency”.

For a further assay, the target named is muscarinic acetylcholine receptors. In words: inhibition of specific binding of ^3 H-Oxotremorine-M (^3 H-Oxo) to rat cortex. On the set-up: species or system rat (male Wistar). The conditions noted are these: ^3 H-Oxotremorine 1.0 nM, 30 min, 25° C. The text has this: The pharmacological properties of the compounds of the invention can be illustrated by determining their capability to inhibit the specific binding of ^3 H-Oxotremorine-M (^3 H-Oxo). Birdsdall N. J. M., Hulme E. C., and Burgen A. S. V. (1980). "The Character of Muscarinic Receptors in Different Regions of the Rat Brain". Proc. Roy. Soc. London (Series B) 207,1.
^3 H-Oxo labels muscarinic receptor in the CNS (with a preference for agonist domains of the receptors). Three different sites are labeled by ^3 H-Oxo. […] Using the present experimental conditions only the high and medium affinity sites are determined.
The inhibitory effects of compounds on ^3 H-oxo binding reflects the affinity for muscarinic acetylcholine receptors.
All preparations are performed at 0°-4° C. unless otherwise indicated. Fresh cortex (0.1-1 g) from male Wistar rats (150-250 g) is homogenized for 5-10 s in 10 mL […] Hepes pH: 7.4, with an Ultra-Turrax homogenizer. The homogenizer is rinsed with 10 mL of buffer and the combined suspension centrifuged for 15 min. at 40,000×g. The pellet is washed three times with buffer. In each step the pellet is homogenized as before in 2×10 mL of buffer and centrifuged for 10 min. at 40,000×g.
The final pellet is homogenized in 20 mM Hepes pH: 7.4 (100 mL per g of original tissue) and used for binding assay. Aliquots of 0.5 mL is added 25 μL of test solution and 25 μL of ^3 H-Oxotremorine (1.0 nM, final concentration) mixed and incubated for 30 min. at 25° C. Non-specific binding is determined in triplicate using arecoline (1 μg/mL, final concentration) as the test substance. After incubation samples are added 5 mL of ice-cold buffer and poured directly onto Whatman GF/C glass fiber filters under suction and immediately washed 2 times with 5 mL of ice-cold buffer. The amount of radioactivity on the filters are determined by conventional liquid scintillation counting. Specific binding is total binding minus non specific binding.
Test substances are dissolved in 10 mL water (if necessary heated on a steam-bath for less than 5 min.) at a concentration of 2.2 mg/mL. 25-75% inhibition of specific binding must be obtained before calculation of IC50. The test value will be given as IC50 (the concentration (nM) of the test substance which inhibits the specific binding of ^3 H-oxo by 50%).
IC50 =(applied test substance concentration)×(Cx /Co
where Co is specific binding in control assays and Cx is the specific binding in the test assay. (The calculations assume normal mass-action kinetics).
In turn, `CCCCCSc1nccnc1OC1CN2CCC1CC2` (racemic) [Compound 7, (+/-)-3-Pentylthio-2-(1-azabicyclo[2.2.2]octyl-3-oxy)pyrazine] came in with an IC50 of 16 nM. Molecule `c1cnc(OC2CN3CCC2CC3)cn1` (racemic) [Compound 8, (+/-)-2-(1-Azabicyclo[2.2.2]octyl-3-oxy)pyrazine] came in with an IC50 of 1040 nM. The molecule `CCCCCOc1nccnc1OC1CN2CCC1CC2` (racemic) [Compound 9, (+/-)-3-(1-Pentyloxy)-2-(1-azabicyclo[2.2.2]octyl-3-oxy)pyrazine] gave an IC50 of 36 nM. Turning to `COc1nccnc1OC1CN2CCC1CC2` (racemic) [Compound 10, (+/-)-3-Methoxy-2-(1-azabicyclo[2.2.2]octyl-3-oxy)pyrazine], the IC50 was 354 nM. `CCOc1nccnc1OC1CN2CCC1CC2` (racemic) [Compound 11] came in with an IC50 of 56 nM. Against the preceding molecule, the IC50 is about 6.3-fold lower. As to `CCCCCCSc1nccnc1OC1CN2CCC1CC2` (racemic) [Compound 12, (+/-)-3-(1-Hexylthio)-2-(1-azabicyclo[2.2.2]octyl-3-oxy)pyrazine], the IC50 turned out to be 25 nM. Still for that read-out and setting: under `CSc1nccnc1OC1CN2CCC1CC2` (racemic) [Compound 13, (+/-)-3-Methylthio-2-(1-azabicyclo[2.2.2]octyl-3-oxy)pyrazine] stands 74 nM; under `CCSc1nccnc1OC1CN2CCC1CC2` (racemic) [Compound 14, (+/-)-3-Ethylthio-2-(1-azabicyclo[2.2.2]octyl-3-oxy)pyrazine], 26 nM; under `CCCSc1nccnc1OC1CN2CCC1CC2` (racemic) [Compound 15], 14 nM. For the molecule `CCCCCCCSc1nccnc1OC1CN2CCC1CC2` (racemic) [Compound 16], the IC50 was determined as 39 nM.

With `Clc1nccnc1O[C@H]1CN2CCC[C@@H]1C2` (relative stereo) [Compound 19, 3-Chloro-2-[endo-(+,-)-6-(1-azabicyclo[3.2.1]octyloxy)]-pyrazine], the half-maximal inhibitory concentration (IC50) was determined as 121 nM. Against the preceding molecule, the IC50 is about 3.1-fold higher. Turning to `Cc1nccnc1O[C@H]1CN2CCC[C@@H]1C2` (relative stereo) [Compound 20, 3-Methyl-2-[endo-(+,-)-6-(1-azabicyclo[3.2.1]octyloxy)]-pyrazine], the IC50 was found to be 245 nM. Against the preceding molecule, the IC50 is about 2-fold higher. For the molecule `Clc1cncc(O[C@H]2CN3CCC[C@@H]2C3)n1` (relative stereo) [Compound 22, 6-Chloro-2-[endo-(+,-)-6-(1-azabicyclo[3.2.1]octyloxy)]-pyrazine], the IC50 was 140 nM. In the case of `CCCCOc1nccnc1O[C@H]1CN2CCC[C@@H]1C2` (relative stereo) [Compound 23, 3-(1-butyloxy)-2-[endo-(+,-)-6-(1-azabicyclo[3.2.1]octyloxy)]-pyrazine], the IC50 turned out to be 4.9 nM. On to `CCCCSc1nccnc1O[C@H]1CN2CCC[C@@H]1C2` (relative stereo) [Compound 24, 3-(1-butylthio)-2-[endo-(+,-)-6-(1-azabicyclo[3.2.1]octyloxy)]-pyrazine], for which the IC50 came out at 2.2 nM. `CCCSc1nccnc1O[C@H]1CN2CCC[C@@H]1C2` (relative stereo) [Compound 29, (±)-endo-2-Propylthio-3-(1-azabicyclo[3.2.1]octyl-6-oxy)pyrazine] registered a 50% inhibitory concentration (IC50) of 1.7 nM. This IC50 and that of the molecule before are within 1.5-fold of each other. In turn, `CCCCCSc1nccnc1O[C@H]1CN2CCC[C@@H]1C2` (relative stereo) [Compound 30, (±)-endo-2-Pentylthio-3-(1-azabicyclo[3.2.1]octyl-6-oxy)pyrazine] came in with an IC50 of 4.4 nM. Take `CC(C)CSc1nccnc1O[C@H]1CN2CCC[C@@H]1C2` (relative stereo) [Compound 31, (±)-endo-2-(2-Methylpropylthio)-3-(1-azabicyclo[3.2.1]octyl-6-oxy)-pyrazine]: the IC50 came out at 3.4 nM.

`CCSc1nccnc1O[C@H]1CN2CCC[C@@H]1C2` (relative stereo) [Compound 32, (±)-endo-2-Ethylthio-3-(1-azabicyclo[3.2.1]octyl-6-oxy)pyrazine] showed an IC50 of 3.9 nM. The same measure, in the same setting: under `FC(F)(F)CSc1nccnc1O[C@H]1CN2CCC[C@@H]1C2` (relative stereo) [Compound 33, (±)-endo-2-(2,2,2,-Trifluoroethylthio)-3-(1-azabicyclo[3.2.1]octyl-6-oxy)pyrazine] stands 1.5 nM. Regarding `C/C=C/CSc1nccnc1O[C@H]1CN2CCC[C@@H]1C2` (relative stereo) [Compound 34, (±)-endo-2-(trans-2-Butenylthio)-3-(1-azabicyclo[3.2.1]octyl-6-oxy)pyrazine], the IC50 was 2 nM.

The molecule `FC(F)(F)CCCSc1nccnc1O[C@H]1CN2CCC[C@@H]1C2` (relative stereo) [Compound 35, (±)-endo-2-(4,4,4-Trifluorobutylthio)-3-(1-azabicyclo[3.2.1]octyl-6-oxy)pyrazine] yielded a concentration for half-maximal inhibition (IC50) of 3.2 nM.

Consider `C=CCSc1nccnc1O[C@H]1CN2CCC[C@@H]1C2` (relative stereo) [Compound 36, (±)-endo-2-(2-propenylthio)-3-(1-azabicyclo[3.2.1]octyl-6-oxy)pyrazine], for which the half-maximal inhibitory concentration (IC50) was 0.34 nM. Compared with the last molecule, the IC50 is about 9.4-fold lower. In turn, `CC(C)CCSc1nccnc1O[C@H]1CN2CCC[C@@H]1C2` (relative stereo) [Compound 37, (±)-endo-2-(3-Methylbutylthio)-3-(1-azabicyclo[3.2.1]octyl-6-oxy)pyrazin] yielded an IC50 of 1.3 nM. In turn, `FC(F)(F)Oc1ccc(CSc2nccnc2O[C@H]2CN3CCC[C@@H]2C3)cc1` (relative stereo) [Compound 38, (±)-endo-2-(4-Trifluoromethoxybenzylthio)-3-(1-azabicyclo[3.2.1]octyl-6-oxy)pyrazine] came in with a concentration for half-maximal inhibition (IC50) of 6.2 nM. `CCCSc1cncc(O[C@H]2CN3CCC[C@@H]2C3)n1` (relative stereo) [Compound 39, (±)-endo-2-Propylthio-6-(1-azabicyclo[3.2.1]octyl-6-oxy)pyrazine] registered an IC50 of 10 nM. In turn, `FC(F)(F)CSc1cncc(O[C@H]2CN3CCC[C@@H]2C3)n1` (relative stereo) [Compound 40, (±)-endo-2-(2.2.2-Trifluoroethylthio)-6-(1-azabicyclo[3.2.1]octyl-6-oxy)pyrazine] showed an IC50 of 60 nM. On to `COCCSc1nccnc1O[C@H]1CN2CCC[C@@H]1C2` (relative stereo) [Compound 41, (±)-endo-2-(2-methoxyethylthio)-3-(1-azabicyclo[3.2.1octyl-6-oxy)pyrazine], for which the IC50 worked out at 3.2 nM. On to `C(=Cc1ccccc1)CSc1nccnc1O[C@H]1CN2CCC[C@@H]1C2` (relative stereo) [Compound 42, (±)-endo-2-(3-Phenyl-2-propenylthio)-3-(1-azabicyclo[3.2.1]octyl-6-oxy)pyrazine], for which the IC50 worked out at 9.1 nM. This IC50 is about 2.8-fold higher than that of the molecule before. The same measure, in the same setting: under `CC(C)=CCCSc1nccnc1O[C@H]1CN2CCC[C@@H]1C2` (relative stereo) [Compound 43, (±)-endo-2-(4-Methyl-3-pentenylthio)-3-(1-azabicyclo[3.2.1]octyl-6-oxy)pyrazine] stands 8.1 nM. For the molecule `CCCCSc1nccnc1OCCN(C)C` [Compound 17], the IC50 amounted to 17 nM. Regarding `CCCCSc1nccnc1OCC[N+](C)(C)C` [Compound 18, 3-(1-Butylthio)-2-(2-(trimethylamino)ethoxy)pyrazine iodide], the IC50 amounted to 21 nM.

As to `c1cnc(O[C@H]2CN3CCC[C@@H]2C3)cn1` [Compound 21, 2-[endo-(+,-)-6-(1-azabicyclo[3.2.1]octyloxy)]-pyrazine], the IC50 came out at 26 nM. Molecule `CN1[C@@H]2CC[C@H]1C[C@@H](Oc1cnccn1)C2` [Compound 25, endo-(8-methyl-8-azabicyclo[3.2.1]octyl-3-oxy)pyrazine] registered an IC50 of 180 nM. Regarding `CN(C)CCOc1cnccn1` [Compound 26, 2-(2-Dimethylaminoethoxy)pyrazine], the IC50 was > 1000 nM. In the case of `C[N+](C)(C)CCOc1cnccn1` [Compound 27, 2-(2-Trimethylaminoethoxy)pyrazine iodide], the IC50 is > 1000 nM.

For `CN1CCC[C@H]1COc1cnccn1` [Compound 28, (S)-2-(1-Methyl-2-pyrrolidinylmethoxy)pyrazine], the IC50 was > 10000 nM.

Another assay deals with 5-HT1A receptor.
Assay: not given
The conditions noted are these: only at the 5-HT1A and dopamine receptors; cited from earlier work.
Regarding `O=C1CC2(CCCC2)CC(=O)N1CCCCN1CCN(c2ncccn2)CC1` [Buspirone], the “interaction at 5-HT1A receptors” value is listed as “reasonable potency”.
